The term IC50 denotes the concentration that inhibits the measured activity by half.

The subject of data set [1] is gastric mucosa. Kind of data set: Disorder of gastric mucosa. Particulars: stomach, 300 mg/kg orally, fasted rats, 6 hours after dosing. It counts as in vivo, SD rats. The procedure: Disorder of Gastric Mucosa
Male SD origin male-rats (7 weeks old, CLEA Japan) were used. After 24 hours from the termination of food supply, samples were orally administered (5 mL/kg, b.w.). After 5.5 hours, Evan's Blue (0.5% Evan's Blue/saline) was injected intravenously (1 mL/rat) under no anesthesia. After 30 minutes from the shot, the stomach (with esophagus and duodenum of 1.5 to 2 cm length) was removed by celiotomy, and subsequently, the esophagus terminal was closed with a clip, and a 8 mL of 1% formalin solution was injected into the stomach through the duodenum, which was also closed with a clip after the injection. The stomach was left contacting with the 1% formalin solution for more than 10 minutes, and subsequently cut open from duodenum along the greater curvature of stomach. The stomach was washed and spread on a filter paper, and the length of each of the spots dyed by Evan's Blue (hemorrhagic portion: mucosal ablation to ulcer) was measured under a stereomicroscope, and the total length (mm) was calculated by a counter and recorded.

Data set [2] has as its target T1, human COX-2 (Homo sapiens, UniProt P35354).
T1 construct: made in house; host or cells: Sf-21 insect cells (recombinant baculovirus BAC-COX2, pFASTBAC1); microsome fraction
T1 sequence (P35354 18-604): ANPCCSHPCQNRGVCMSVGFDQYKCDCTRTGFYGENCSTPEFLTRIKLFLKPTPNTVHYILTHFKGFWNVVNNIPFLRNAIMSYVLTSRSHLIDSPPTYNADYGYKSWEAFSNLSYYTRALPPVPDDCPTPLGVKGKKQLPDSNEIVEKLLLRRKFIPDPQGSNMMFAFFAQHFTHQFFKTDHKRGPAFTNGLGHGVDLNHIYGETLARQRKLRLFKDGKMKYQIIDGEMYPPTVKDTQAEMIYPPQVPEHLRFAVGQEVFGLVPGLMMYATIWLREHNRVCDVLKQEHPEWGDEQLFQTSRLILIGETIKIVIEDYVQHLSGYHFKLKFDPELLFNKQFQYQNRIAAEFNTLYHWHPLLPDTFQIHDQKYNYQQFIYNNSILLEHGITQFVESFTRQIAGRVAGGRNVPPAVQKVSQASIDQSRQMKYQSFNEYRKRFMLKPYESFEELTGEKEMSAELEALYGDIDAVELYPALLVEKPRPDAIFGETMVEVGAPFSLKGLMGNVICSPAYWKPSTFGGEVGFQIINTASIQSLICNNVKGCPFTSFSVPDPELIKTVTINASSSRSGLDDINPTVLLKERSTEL
Kind of data set: Determination of COX-2 inhibitory activity (microsome fraction, chemiluminescence). It counts as biochemical. Particulars: microsome fraction 20 μg, arachidonic acid, 37° C. 25 minutes preincubation; read-out: Repression rate IC50 (μM) COX-2. On the procedure:
A 1.8 kb DNA fragment containing human COX-2 cDNA (Proc. Natl. Acad. Sci. U.S.A., vol. 89 (16), p. 7384-7388 (1992)) prepared by the PCR method was inserted into plasmid pFASTBAC1 (CIBCOBRAL) to obtain a plasmid pFBCOX2.
Using the plasmid pFBCOX2 and BAC-TO-BAC Baculovirus Expression System (GIBCOBRAL), a virus stock BAC-COX2 of the recombinant baculovirus was prepared.
Sf-21 cells were inoculated in 125 mL of LSf-900 II SFM medium (GIBCOBRAL) at a concentration of 1×10^6 cells/mL, and the medium was incubated at 27° C. for 24 hours. 0.75 mL of the virus stock BAC-COX2 of the recombinant baculovirus was added thereto, and was incubated further for 72 hours. The cells were separated from the medium by centrifugation (3000 rpm, 10 min), and washed with PBS twice. The cells were suspended in 10 mL of a Lysis buffer (0.1M Tris-HCl (pH 7.4), 5 mM EDTA), and were treated with a homogenizer (POLYTRON), three times at 20000 rpm for 20 seconds so that the cells were crushed. The supernatant thus obtained after centrifugation (2000 rpm, 10 minutes) was further centrifuged (40000 rpm, 45 minutes) to obtain a precipitate, which was resuspended in a Lysis buffer (0.1M Tris-HCl (pH 7.4), 5 mM EDTA), and the suspension was stored at −80° C.
Determination of COX-1 and COX-2 Inhibitory Activities
To a mixture of 20 μL of a reaction buffer previously concentrated 10 times (1M Tris-HCl (pH8.0), 50 mM EDTA, 1.0% Tween 20, 50 mM luminol, 100 μM hematin), 20 μL of the microsome fractions (COX-1: 40 μg, COX-2: 20 μg), and 55 μL of distilled water, a sample compound dissolved in DMF (5 μL) was added, and the mixture was left at 37° C. for 25 minutes. The reaction was started by the addition of 20 μM arachidonic acid (100 μL), and chemiluminescence amount during the 10-second period after the addition of arachidonic acid was determined by the use of Lumistar (BMG Lab technologies, GmbH). The inhibition rate was calculated, regarding that the enzyme activity when DMF ([…]) was added was 100%, and the enzyme activity when 4 mM flurbiprofen (5 μL) was added was 0%.

Data set [3] concerns adjuvant arthritis. The data set can be described thus: Anti-adjuvant-arthritic activity. Type of data set: in vivo, SD rats. Particulars: 10 mg/kg orally once a day for 14 days; volume of left hind limb (not injected); day of reading not given. On the procedure: Anti-Adjuvant-Arthritic Activity
Male SD origin male-rats (6 weeks old, CLEA Japan, 1 group: n=7) were used. The adjuvant arthritis method was conducted according to the method of Newbould B. B. et. al., (Brit. J. Pharmacol. Chemother., vol. 21, p. 127, 1963). Complete Freund's adjuvant (a suspension of killed tubercule bacillus in liquid paraffin at a concentration of 0.5%, 0.05 mL) was injected into the right hind limb footpad intracutaneouly to induce multiple arthritis. Samples were administered orally (10 mg/kg, b.w.), once a day for 14 days from the day before the injection day 0 to day 13. Volume of the left hind limb (not injected) was determined by the foot-volume measurement apparatus manufactured by Ugo Basile, on the day just before the adjuvant shot (Day 0), Day 10 and Day 14, and repression rate (%) was calculated comparing the values between the sample group and the control group.

Marks after values point to notes of the source that are not given here.

As for `O=c1c2ccccc2[nH]c2c1cnn2-c1ccccn1` [Example 2-159, 1-(2-Pyridinyl)-1,9-dihydro-4H-pyrazolo[3,4-b]quinolin-4-one], in data set [1], the “Total length of dyed spots (mm)” value is reported as 0 (300 mg/kg) mm. In data set [2], the half-maximal inhibitory concentration (IC50) was determined as 1.37 µM. Take `Cc1nn(-c2ccccn2)c2[nH]c3cccc(F)c3c(=O)c12.Cl` [Example 2-79, 5-Fluoro-3-methyl-1-(2-pyridinyl)-1,9-dihydro-4H-pyrazolo[3,4-b]quinolin-4-one hydrochloride]: in data set [1], the “Total length of dyed spots (mm)” value was 0 (300 mg/kg) mm. Moreover, in data set [2], the IC50 was found to be 3.7 µM. Consider `CCCOc1c2ccccc2nc2c1c(C)nn2-c1ccccn1` [Example 2-17, 3-Methyl-4-propoxy-1-(2-pyridinyl)-1H-pyrazolo[3,4-b]quinoline], for which the “Repression rate (%) Dosage 10 mg/kg” value in data set [3] is 61* %. Moreover, the 50% inhibitory concentration (IC50) in data set [2] came out at 49.2 µM. Turning to `CCCNc1c2ccccc2nc2c1c(C)nn2-c1ccccn1` [Example 2-6, N-[3-Methyl-1-(2-pyridinyl)-1H-pyrazolo[3,4-b]quinolin-4-yl]-N-propylamine], the IC50 in data set [2] amounted to 65.1 µM. Regarding `Cc1nn(-c2ccccn2)c2nc3ccccc3c(OC3CCCC3)c12` [Example 2-21, 4-Cyclopentyloxy-3-methyl-1-(2-pyridinyl)-1H-pyrazolo[3,4-b]quinoline], the IC50 in data set [2] stood at 86 µM.
